Experimental data taken from ChEMBL document CHEMBL3991601, “The target landscape of clinical kinase drugs” (Science, 2017).
Active and inactive are the calls of the source.

Legend:
[1] = molecular target: Proto-oncogene tyrosine-protein kinase receptor Ret (Homo sapiens, UniProt P07949)
[2] = molecular target: Dual specificity protein kinase CLK4 (Homo sapiens, UniProt Q9HAZ1)
[3] = molecular target: Serine/threonine-protein kinase 38-like (Homo sapiens, UniProt Q9Y2H1)
[4] = molecular target: Epidermal growth factor receptor (Homo sapiens, UniProt P00533)
Epidermal growth factor receptor, sequence (P00533 whole entry): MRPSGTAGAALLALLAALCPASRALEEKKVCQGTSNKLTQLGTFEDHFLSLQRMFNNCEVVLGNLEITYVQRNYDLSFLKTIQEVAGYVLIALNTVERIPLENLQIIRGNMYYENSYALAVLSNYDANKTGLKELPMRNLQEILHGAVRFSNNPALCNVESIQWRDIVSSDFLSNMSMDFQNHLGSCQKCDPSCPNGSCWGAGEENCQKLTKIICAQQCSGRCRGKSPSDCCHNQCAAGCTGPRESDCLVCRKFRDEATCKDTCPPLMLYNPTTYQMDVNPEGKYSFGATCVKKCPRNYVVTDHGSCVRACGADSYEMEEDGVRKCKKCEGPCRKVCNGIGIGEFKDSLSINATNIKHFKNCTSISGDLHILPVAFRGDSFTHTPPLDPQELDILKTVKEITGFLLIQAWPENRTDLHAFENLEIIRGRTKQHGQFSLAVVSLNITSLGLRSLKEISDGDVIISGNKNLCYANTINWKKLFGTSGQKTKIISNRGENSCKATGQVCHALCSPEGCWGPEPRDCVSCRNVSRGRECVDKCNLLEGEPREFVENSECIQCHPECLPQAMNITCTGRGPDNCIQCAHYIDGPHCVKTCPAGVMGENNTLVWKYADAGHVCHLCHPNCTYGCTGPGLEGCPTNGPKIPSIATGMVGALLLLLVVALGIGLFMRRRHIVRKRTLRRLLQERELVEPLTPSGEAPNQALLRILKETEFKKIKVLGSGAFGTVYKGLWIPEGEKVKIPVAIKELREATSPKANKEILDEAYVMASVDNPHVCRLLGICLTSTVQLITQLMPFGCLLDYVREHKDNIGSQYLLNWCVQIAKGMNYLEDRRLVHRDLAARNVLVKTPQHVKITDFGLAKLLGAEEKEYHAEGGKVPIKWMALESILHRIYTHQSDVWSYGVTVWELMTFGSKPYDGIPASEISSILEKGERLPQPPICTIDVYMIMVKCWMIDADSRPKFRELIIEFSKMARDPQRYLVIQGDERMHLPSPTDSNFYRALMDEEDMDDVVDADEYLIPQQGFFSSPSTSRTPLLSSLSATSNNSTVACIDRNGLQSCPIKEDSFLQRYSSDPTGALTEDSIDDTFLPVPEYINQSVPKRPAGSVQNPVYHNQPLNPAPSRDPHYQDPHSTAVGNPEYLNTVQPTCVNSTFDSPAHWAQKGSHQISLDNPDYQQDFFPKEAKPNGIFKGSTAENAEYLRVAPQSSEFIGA

[5] = molecular target: T1, Inhibitor of nuclear factor kappa-B kinase subunit epsilon (Homo sapiens, UniProt Q14164)
T1 sequence (Q14164 whole entry): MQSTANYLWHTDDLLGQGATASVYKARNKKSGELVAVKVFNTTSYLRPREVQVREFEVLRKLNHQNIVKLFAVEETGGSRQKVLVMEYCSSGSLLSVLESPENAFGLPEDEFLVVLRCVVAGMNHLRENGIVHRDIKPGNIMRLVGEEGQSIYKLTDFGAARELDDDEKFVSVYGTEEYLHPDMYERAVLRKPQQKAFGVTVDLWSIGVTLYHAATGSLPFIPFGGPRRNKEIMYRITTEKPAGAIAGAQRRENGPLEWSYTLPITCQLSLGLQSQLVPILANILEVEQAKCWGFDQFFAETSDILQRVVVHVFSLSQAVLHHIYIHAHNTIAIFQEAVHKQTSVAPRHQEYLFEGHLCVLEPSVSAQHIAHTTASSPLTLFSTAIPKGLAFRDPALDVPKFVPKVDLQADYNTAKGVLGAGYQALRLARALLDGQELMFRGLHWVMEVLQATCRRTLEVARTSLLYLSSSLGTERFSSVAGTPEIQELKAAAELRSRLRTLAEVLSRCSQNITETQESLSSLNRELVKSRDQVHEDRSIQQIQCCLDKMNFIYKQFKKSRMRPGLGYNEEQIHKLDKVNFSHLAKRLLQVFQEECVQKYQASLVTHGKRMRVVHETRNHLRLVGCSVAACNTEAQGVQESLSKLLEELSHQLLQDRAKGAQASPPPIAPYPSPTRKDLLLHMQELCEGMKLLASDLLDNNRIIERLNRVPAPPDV

[6] = molecular target: Serine/threonine-protein kinase ATR (Homo sapiens, UniProt Q13535)
[7] = molecular target: T2, Adenine phosphoribosyltransferase (Homo sapiens, UniProt P07741)
T2 sequence (P07741 whole entry): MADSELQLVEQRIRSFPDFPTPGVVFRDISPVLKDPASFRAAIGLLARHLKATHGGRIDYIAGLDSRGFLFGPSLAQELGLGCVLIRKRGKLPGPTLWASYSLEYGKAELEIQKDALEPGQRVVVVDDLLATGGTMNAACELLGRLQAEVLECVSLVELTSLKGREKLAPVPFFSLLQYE

[8] = molecular target: Guanine nucleotide-binding protein G(i) subunit alpha-2 (Homo sapiens, UniProt P04899)
Guanine nucleotide-binding protein G(i) subunit alpha-2, sequence (P04899 whole entry, the tested form may be a part): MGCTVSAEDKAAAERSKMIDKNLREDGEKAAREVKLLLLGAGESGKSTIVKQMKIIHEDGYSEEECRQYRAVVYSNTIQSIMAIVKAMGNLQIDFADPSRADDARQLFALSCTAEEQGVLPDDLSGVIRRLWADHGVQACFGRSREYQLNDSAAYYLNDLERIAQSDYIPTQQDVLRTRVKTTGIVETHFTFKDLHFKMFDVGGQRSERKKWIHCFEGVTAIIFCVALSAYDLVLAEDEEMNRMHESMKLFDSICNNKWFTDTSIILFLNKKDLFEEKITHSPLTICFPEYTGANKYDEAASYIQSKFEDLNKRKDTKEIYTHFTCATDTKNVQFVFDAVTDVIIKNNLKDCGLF

[9] = molecular target: Uncharacterized aarF domain-containing protein kinase 5 (Homo sapiens, UniProt Q3MIX3)
Uncharacterized aarF domain-containing protein kinase 5, sequence (Q3MIX3 whole entry, the tested form may be a part): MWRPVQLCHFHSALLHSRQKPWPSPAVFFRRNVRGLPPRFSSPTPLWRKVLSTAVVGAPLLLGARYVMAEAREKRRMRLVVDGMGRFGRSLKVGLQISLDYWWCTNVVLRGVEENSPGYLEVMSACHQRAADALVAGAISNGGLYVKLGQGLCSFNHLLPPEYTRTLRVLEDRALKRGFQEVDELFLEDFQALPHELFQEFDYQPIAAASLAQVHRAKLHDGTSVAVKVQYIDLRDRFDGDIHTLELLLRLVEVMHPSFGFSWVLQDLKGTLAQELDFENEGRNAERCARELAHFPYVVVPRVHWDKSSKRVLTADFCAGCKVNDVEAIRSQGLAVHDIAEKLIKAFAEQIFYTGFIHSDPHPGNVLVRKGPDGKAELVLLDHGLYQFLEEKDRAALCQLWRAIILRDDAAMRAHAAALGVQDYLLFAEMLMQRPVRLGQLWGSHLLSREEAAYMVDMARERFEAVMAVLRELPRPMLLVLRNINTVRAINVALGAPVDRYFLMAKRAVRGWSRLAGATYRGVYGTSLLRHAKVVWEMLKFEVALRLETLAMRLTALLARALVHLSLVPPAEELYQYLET

[10] = molecular target: Dual specificity protein kinase CLK3 (Homo sapiens, UniProt P49761); assay type: subcellular, K-562, COLO 205, SK-N-BE(2) and MV-4-11, Cell lysate; conditions: read-out: Kd apparent
Dual specificity protein kinase CLK3, sequence (P49761 whole entry): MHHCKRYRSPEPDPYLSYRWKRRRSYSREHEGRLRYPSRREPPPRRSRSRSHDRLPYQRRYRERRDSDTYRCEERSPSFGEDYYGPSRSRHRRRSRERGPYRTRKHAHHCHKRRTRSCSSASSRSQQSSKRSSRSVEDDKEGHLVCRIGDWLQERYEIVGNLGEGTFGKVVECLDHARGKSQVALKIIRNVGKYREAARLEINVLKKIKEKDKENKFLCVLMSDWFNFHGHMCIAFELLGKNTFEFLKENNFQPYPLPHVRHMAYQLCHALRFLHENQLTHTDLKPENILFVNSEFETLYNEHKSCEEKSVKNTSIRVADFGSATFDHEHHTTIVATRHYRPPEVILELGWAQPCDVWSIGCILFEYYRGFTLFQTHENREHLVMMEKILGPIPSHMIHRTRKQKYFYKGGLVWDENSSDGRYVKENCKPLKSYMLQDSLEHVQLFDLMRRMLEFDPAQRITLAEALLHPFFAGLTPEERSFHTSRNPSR

[11] = molecular target: Cyclin-dependent kinase 2 (Homo sapiens, UniProt P24941)
[12] = molecular target: T3, Phosphatidylinositol 5-phosphate 4-kinase type-2 alpha (Homo sapiens, UniProt P48426)
T3 sequence (P48426 whole entry): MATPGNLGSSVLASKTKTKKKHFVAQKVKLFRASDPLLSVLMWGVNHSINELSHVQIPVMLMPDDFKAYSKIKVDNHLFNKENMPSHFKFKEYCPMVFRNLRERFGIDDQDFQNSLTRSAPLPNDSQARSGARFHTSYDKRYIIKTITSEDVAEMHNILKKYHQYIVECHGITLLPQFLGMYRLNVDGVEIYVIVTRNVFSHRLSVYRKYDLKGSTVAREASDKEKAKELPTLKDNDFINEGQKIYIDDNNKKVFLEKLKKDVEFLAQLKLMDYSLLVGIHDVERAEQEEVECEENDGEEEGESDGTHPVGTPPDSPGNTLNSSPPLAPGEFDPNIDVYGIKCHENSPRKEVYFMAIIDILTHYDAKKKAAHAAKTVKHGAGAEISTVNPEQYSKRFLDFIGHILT

[13] = molecular target: Dual specificity protein kinase CLK2 (Homo sapiens, UniProt P49760)
Dual specificity protein kinase CLK2, sequence (P49760 whole entry): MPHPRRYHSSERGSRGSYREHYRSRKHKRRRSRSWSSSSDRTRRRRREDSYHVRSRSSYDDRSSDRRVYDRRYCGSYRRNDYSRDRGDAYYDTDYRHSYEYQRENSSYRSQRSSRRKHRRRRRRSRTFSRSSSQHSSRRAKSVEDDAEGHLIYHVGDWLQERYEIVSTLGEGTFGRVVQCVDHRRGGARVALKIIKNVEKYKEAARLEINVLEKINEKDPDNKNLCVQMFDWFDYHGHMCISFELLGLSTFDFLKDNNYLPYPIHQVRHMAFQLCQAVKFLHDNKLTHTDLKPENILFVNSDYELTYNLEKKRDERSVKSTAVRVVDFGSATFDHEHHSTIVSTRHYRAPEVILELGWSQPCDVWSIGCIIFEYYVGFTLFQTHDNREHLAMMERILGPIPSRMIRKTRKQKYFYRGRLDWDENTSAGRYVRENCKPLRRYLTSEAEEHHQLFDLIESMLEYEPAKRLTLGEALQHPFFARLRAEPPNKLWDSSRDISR

[14] = molecular target: High affinity nerve growth factor receptor (Homo sapiens, UniProt P04629)
[15] = molecular target: Serine/threonine-protein kinase Nek7 (Homo sapiens, UniProt Q8TDX7)
Serine/threonine-protein kinase Nek7, sequence (Q8TDX7 whole entry): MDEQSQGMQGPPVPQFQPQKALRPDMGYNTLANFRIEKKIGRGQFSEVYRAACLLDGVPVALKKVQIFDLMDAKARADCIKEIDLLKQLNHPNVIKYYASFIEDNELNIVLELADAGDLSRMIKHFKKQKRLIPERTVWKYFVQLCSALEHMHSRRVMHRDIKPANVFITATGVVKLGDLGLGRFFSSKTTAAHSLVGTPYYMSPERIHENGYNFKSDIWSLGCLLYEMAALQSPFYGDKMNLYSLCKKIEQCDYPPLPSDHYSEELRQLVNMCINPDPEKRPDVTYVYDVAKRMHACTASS

[16] = molecular target: Serine/threonine-protein kinase pim-2 (Homo sapiens, UniProt Q9P1W9)
Serine/threonine-protein kinase pim-2, sequence (Q9P1W9 whole entry): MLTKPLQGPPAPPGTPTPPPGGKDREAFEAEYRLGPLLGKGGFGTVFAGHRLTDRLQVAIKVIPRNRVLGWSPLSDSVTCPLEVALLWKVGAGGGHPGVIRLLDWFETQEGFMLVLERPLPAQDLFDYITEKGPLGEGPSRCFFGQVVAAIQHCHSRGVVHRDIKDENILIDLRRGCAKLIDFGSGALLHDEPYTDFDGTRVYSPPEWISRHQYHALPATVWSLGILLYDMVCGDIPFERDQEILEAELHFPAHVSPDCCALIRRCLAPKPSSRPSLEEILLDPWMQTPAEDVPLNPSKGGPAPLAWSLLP
Note: in the data inactive means no Kd found up to 30 µM.

Proto-oncogene tyrosine-protein kinase receptor Ret, sequence (P07949 whole entry): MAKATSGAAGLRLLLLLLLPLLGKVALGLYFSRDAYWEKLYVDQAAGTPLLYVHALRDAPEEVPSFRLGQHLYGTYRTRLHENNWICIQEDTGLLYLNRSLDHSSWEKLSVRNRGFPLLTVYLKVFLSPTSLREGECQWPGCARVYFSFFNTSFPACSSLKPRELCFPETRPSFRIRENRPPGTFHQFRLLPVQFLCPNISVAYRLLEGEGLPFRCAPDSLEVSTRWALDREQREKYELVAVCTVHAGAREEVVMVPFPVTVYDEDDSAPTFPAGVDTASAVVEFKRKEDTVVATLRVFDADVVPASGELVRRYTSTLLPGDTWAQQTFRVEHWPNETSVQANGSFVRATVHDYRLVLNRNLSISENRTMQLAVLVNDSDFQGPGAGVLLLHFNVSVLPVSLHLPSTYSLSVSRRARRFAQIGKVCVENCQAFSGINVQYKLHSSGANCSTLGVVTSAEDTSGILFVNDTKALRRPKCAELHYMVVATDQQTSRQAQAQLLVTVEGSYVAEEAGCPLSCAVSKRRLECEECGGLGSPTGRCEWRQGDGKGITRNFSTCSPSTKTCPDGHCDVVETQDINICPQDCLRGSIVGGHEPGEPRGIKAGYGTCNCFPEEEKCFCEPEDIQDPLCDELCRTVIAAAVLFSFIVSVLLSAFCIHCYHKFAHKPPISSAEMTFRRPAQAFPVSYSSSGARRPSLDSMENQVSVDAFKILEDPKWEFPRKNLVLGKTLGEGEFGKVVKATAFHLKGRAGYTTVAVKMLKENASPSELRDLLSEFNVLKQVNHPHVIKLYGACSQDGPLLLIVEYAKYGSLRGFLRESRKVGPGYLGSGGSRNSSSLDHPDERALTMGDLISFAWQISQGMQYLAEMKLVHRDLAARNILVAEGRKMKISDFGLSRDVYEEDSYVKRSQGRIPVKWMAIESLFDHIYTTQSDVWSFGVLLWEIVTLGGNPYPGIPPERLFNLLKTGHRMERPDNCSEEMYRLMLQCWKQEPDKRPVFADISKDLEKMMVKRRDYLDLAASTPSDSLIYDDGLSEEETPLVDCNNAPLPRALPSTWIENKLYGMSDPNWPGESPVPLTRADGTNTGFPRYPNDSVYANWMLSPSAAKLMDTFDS

SMILES	Kd [1]	Kd [2]	Kd [3]	Kd [4]	Kd [5]	Kd [6]	Kd [7]	Kd [8]	Kd [9]	Kd [10]	Kd [11]	Kd [12]	Kd [13]	Kd [14]	Kd [15]	Kd [16]
OCCn1cc(-c2cnc3nnn(Cc4ccc5ncccc5c4)c3n2)cn1 [PF-04217903]			> 30 µM (inactive)	> 30 µM (inactive)		> 30 µM (inactive)	> 30 µM (inactive)	> 30 µM (inactive)	> 30 µM (inactive)	> 30 µM (inactive)	> 30 µM (inactive)	> 30 µM (inactive)			> 30 µM (inactive)	> 30 µM (inactive)
CNC(=O)CN1CCC(Oc2cc3c(Nc4cccc(Cl)c4F)ncnc3cc2OC)CC1 [SAPITINIB]	0.39 µM (active)	> 30 µM (inactive)	> 30 µM (inactive)		> 30 µM (inactive)			> 30 µM (inactive)	> 30 µM (inactive)	> 30 µM (inactive)	> 30 µM (inactive)	> 30 µM (inactive)		> 30 µM (inactive)		> 30 µM (inactive)
CN1CC[C@@H](c2c(O)cc(O)c3c(=O)cc(-c4ccccc4Cl)oc23)[C@@H]1CO	> 30 µM (inactive)	> 30 µM (inactive)	> 30 µM (inactive)	> 30 µM (inactive)	> 30 µM (inactive)		> 30 µM (inactive)			> 30 µM (inactive)	> 30 µM (inactive)		> 30 µM (inactive)	> 30 µM (inactive)	> 30 µM (inactive)	> 30 µM (inactive)
Cc1cc2c(F)c(Oc3ncnn4cc(OC[C@@H](C)OC(=O)[C@H](C)N)c(C)c34)ccc2[nH]1 [BRIVANIB ALANINATE]	7.48 µM (active)		> 30 µM (inactive)	> 30 µM (inactive)	> 30 µM (inactive)		> 30 µM (inactive)	> 30 µM (inactive)	> 30 µM (inactive)	> 30 µM (inactive)	> 30 µM (inactive)	> 30 µM (inactive)	> 30 µM (inactive)	> 30 µM (inactive)	> 30 µM (inactive)	> 30 µM (inactive)
CCS(=O)(=O)N1CC(CC#N)(n2cc(-c3ncnc4[nH]ccc34)cn2)C1 [BARICITINIB]	0.973 µM (active)	> 30 µM (inactive)	> 30 µM (inactive)	> 30 µM (inactive)	> 30 µM (inactive)	> 30 µM (inactive)	> 30 µM (inactive)	> 30 µM (inactive)	> 30 µM (inactive)	> 30 µM (inactive)	> 30 µM (inactive)		> 30 µM (inactive)			

Continued, values first:

Kd [1]	Kd [2]	Kd [3]	Kd [4]	Kd [5]	Kd [6]	Kd [7]	Kd [8]	Kd [9]	Kd [10]	Kd [11]	Kd [12]	Kd [13]	Kd [14]	Kd [15]	Kd [16]	SMILES
> 30 µM (inactive)	> 30 µM (inactive)	> 30 µM (inactive)	> 30 µM (inactive)	> 30 µM (inactive)	> 30 µM (inactive)	> 30 µM (inactive)	> 30 µM (inactive)	> 30 µM (inactive)	> 30 µM (inactive)	> 30 µM (inactive)	> 30 µM (inactive)	> 30 µM (inactive)	> 30 µM (inactive)			C[C@@H]1CN(Cc2ccc(F)cc2)[C@@H](C)CN1C(=O)c1cc2c(C(=O)C(=O)N(C)C)cn(C)c2cc1Cl [TALMAPIMOD]
2.42 µM (active)	> 30 µM (inactive)	> 30 µM (inactive)	> 30 µM (inactive)	> 30 µM (inactive)	> 30 µM (inactive)	> 30 µM (inactive)	> 30 µM (inactive)	> 30 µM (inactive)	> 30 µM (inactive)	> 30 µM (inactive)	> 30 µM (inactive)	> 30 µM (inactive)	> 30 µM (inactive)	> 30 µM (inactive)	> 30 µM (inactive)	Cc1ccc(NC(=O)c2ccc(CN3CC[C@H](N(C)C)C3)c(C(F)(F)F)c2)cc1Nc1nccc(-c2cncnc2)n1 [BAFETINIB]
> 30 µM (inactive)		> 30 µM (inactive)	> 30 µM (inactive)			> 30 µM (inactive)	> 30 µM (inactive)		> 30 µM (inactive)	> 30 µM (inactive)	> 30 µM (inactive)	> 30 µM (inactive)	> 30 µM (inactive)		> 30 µM (inactive)	Cc1c(F)cc(C(=O)NC2CC2)cc1-c1ccc(C(=O)NCC(C)(C)C)cn1 [LOSMAPIMOD]
